Experiment [1] has as its target T1, hOAT (Homo sapiens, UniProt P04181).
T1 construct: made in house
T1 sequence (P04181 36-439 limits assumed): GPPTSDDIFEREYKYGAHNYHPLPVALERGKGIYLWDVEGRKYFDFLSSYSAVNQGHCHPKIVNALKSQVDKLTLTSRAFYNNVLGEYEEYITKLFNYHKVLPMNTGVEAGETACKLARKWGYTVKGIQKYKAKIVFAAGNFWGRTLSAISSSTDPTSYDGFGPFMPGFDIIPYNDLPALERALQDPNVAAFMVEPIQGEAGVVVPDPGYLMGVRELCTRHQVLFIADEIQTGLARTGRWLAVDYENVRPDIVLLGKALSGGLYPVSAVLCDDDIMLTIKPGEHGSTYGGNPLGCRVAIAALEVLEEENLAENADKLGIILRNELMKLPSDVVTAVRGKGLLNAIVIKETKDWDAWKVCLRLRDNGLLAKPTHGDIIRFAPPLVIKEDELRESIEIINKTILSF
Kind of experiment: coupled enzyme hOAT assay. The experiment is classed as biochemical. The procedure:
With inhibitors in hand, we tested for activity in a previously developed coupled enzyme hOAT assay.^9,21
hOAT and PYCR1 were expressed, grown, and purified according to literature procedures.^22,23 GABA-AT was isolated from pig brains and purified according to literature procedure.^16 Coupled enzyme assays for GABA-AT and hOAT were carried out according to previous procedures.^15,21 All chemical were purchased from Sigma Aldrich, Acros Organics, or Matrix Scientific and used without further purification. Anhydrous solvents (THF, CH2Cl2, DMF) were purified before use by passing through a column composed of activated alumina and a supported copper redox catalyst. Yields refer to chromatographically and spectroscopically (^1H-NMR) homogeneous material. Analytical thin-layer chromatography (TLC) was performed using Merck Silica Gel 60 Å F-254 precoated plates (0.25 mm thickness), and components were visualized by ultraviolet light (254 nm) and/or ceric ammonium molybdate stain. Flash column chromatography was performed on a Teledyne Combiflash Rf Plus automated flash purification system with various Teledyne cartridges (4-80 g, 40-63 μm, 60 Å). Purifications were performed with hexanes and ethyl acetate unless otherwise noted. ^1H and ^13C NMR spectra were recorded on a Bruker Avance-III NMR spectrometer at 500 MHz and 126 MHz, respectively, in CDCl3 or D2O. Chemical shifts were reported in ppm, multiplicities are indicated by s=singlet, d=doublet, t=triplet, q=quartet, sep=septet, dd=doublet of doublet, dt=doublet of triplet, m=multiplet, br=broad resonance. Coupling constants were reported in Hz. High resolution mass spectral data were obtained on an Agilent 6210 LC-TOF spectrometer in the positive ion mode using electrospray ionization with an Agilent G1312A HPLC pump and an Agilent G1367B autoinjector at the Integrated Molecular Structure Education and Research Center (IMSERC), Northwestern University. Analytical HPLC was performed by using a reserved-phase Agilent Infinity 1260 HPLC with a Phenomenex Kintex C-18 column (50×2.1 mm, 2.6 μm), detecting with UV absorbance at 254 nm.

In the next experiment the test system is HCC. The following applies: HCC infected/bearing mice; cited from earlier work.
Experiment [2] has as its target T1, hOAT. The following applies: earlier work, cited from earlier work.

Read-outs that look alike come from different tables or passages of the source. Where only a bound is given, the exact number is not on record here.

For the molecule `N[C@H]1C[C@@H](C(=O)O)CC1=C(C(F)(F)F)C(F)(F)F` [Compound 1, (1S,3S)-3-amino-4-(perfluoropropan-2-ylidene)cyclopentane-1-carboxylic acid], on hOAT [1], the kinact (commonly the maximal first-order rate at which the target is inactivated) was 0.00133 s⁻¹ and the kinact/KI is 25.7 M⁻¹ s⁻¹. Further, at hOAT [1] (hOAT inactivation), the Ki was 53 µM. Moreover, in the experiment with HCC, the “HCC marker protein alpha-fetoprotein” value is given as “decrease” and the tumor size result is on record as “decrease”. On hOAT [2], the “inhibition/inactivation of human OAT (in words)” value is given as “potent inhibitor”. The “inhibition/inactivation of human OAT (in words)” value on hOAT [2] (listed as (1S,3 S)-3-amino-4-(perfluoropropan-2-ylidene)cyclopentane-1-carboxylic acid) is recorded as “potent inactivator”.
As to `COC(=O)/C(=C1\C[C@H](C(=O)O)C[C@@H]1N)C(F)(F)F.Cl` [Compound 10, (1S,3S,Z)-3-amino-4-(1,1,1-trifluoro-3-methoxy-3-oxopropan-2-ylidene)cyclopentane-1-carboxylic acid hydrochloride], the Ki at hOAT [1] (hOAT inactivation) is 130 µM. Further, the kinact on hOAT [1] (hOAT inactivation, read-out: kinact (converted)) is 0.00167 s⁻¹. Also, the kinact/KI at hOAT [1] (hOAT inactivation, read-out: kinact/KI (converted)) was 12.2 M⁻¹ s⁻¹. Besides, the “activity against hOAT (in words)” value at hOAT [1] (hydrochloride) is recorded as “similarly potent inhibitor of hOAT”; at hOAT [1] (listed as (1S,3S,Z)-3-amino-4-(1,1,1-trifluoro-3-methoxy-3-oxopropan-2-ylidene)cyclopentan, hydrochloride), “active”.
`COC(=O)/C(=C1/C[C@H](C(=O)O)C[C@@H]1N)C(F)(F)F.Cl` [Compound 11, (1S,3S,E)-3-amino-4-(1,1,1-trifluoro-3-methoxy-3-oxopropan-2-ylidene)cyclopentane-1-carboxylic acid hydrochloride]: the “activity against hOAT (in words)” value on hOAT [1] is “inactive”. For the same molecule, the Ki at hOAT [1] (hOAT inactivation) is at least 2000 µM.

These data come from patent US11203596B2, “Analogs of 3-amino-4-(propan-2-ylidene)cyclopentane-1-carboxylic acid and uses thereof for treating diseases and disorders associated with ornithine aminotransferase activity” (Northwestern University, priority 2019, dated 2021).
